Data from article PMC3948684, “Approaches to Improve the Oral Bioavailability and Effects of Novel Anticancer Drugs Berberine and Betulinic Acid” (PLoS ONE, 2014).
Values after ≈ are worked out from the molar mass of the structure shown. Values belong to the molecule of their own block, whether it stands above or below them.

Legend:
[1] = Oral pharmacokinetic study; type: in vivo, Sprague Dawley rats
Method: Rats were fasted overnight before the start of the experiments and randomly divided into two experimental groups. […] Pharmacokinetic parameters were analyzed using non-compartmental techniques with WinNonlin® 5.0 software (Pharsight Corporation, Mountain View, CA, USA). SHAM analysis (i.e., Slope, Height, Area, and Moment) utilized plasma concentration-time data to estimate the area under the curve (AUC), apparent terminal elimination rate constant (λz), terminal elimination half-life (t1/2) and the area under the first moment of the plasma concentration–time curve (AUMC). The AUC was calculated for each rat using the piecewise log trapezoidal areas and extrapolated to infinity by dividing λz into the last measured plasma concentration (i.e. Clast/λz). From the values of AUC0_0-∞ and AUMC0-∞, the clearance (CL), mean residence time (MRT) and volume of distribution at tissue equilibrium (Vss) were calculated based on noncompartmental monoexponential assumptions as: CL = Dose/AUC, MRT≅AUMC/AUC and Vss = CL×MRT. The noncompartmental parameters were calculated for each rat before averaging dose groups. The pharmacokinetic parameters such as AUC, Cmax, t1/2, tmax, MRT, etc were compared between the free drug and SD formulations.

[2] = In vitro drug release of BA (USP type II paddle, HPLC); type: physicochemical; conditions: after 24 h; pH 5.8, 2.5% SLS, 37°C
Method: In vitro drug release study was conducted in PBS (pH 5.8) containing 1% volpo. Briefly, 50 mg of free drug or equivalent amount of SD form of BBR and BA were dispersed in 500 ml of release medium and the drug release profile was studied at pH 5.8. Release studies were performed according to the USP type II paddle method, at 37±0.5°C while stirring constantly at 50 rpm. Samples were withdrawn at different time points, centrifuged and drug content in the samples was analyzed by spectrometric method of analysis. The withdrawn samples were replaced by equal volumes of fresh medium maintained at the same temperature. Except replacing the 1% Volpo with 2.5% SLS, similar conditions were maintained for the in vitro drug release studies of BA in free drug and SD forms. The released BA concentrations were measured by established HPLC method.

[3] = tested on: TUNEL positive apoptotic cells; assay: TUNEL assay on orthotopic lung tumor sections; type: in vivo, athymic Nu/nu mice
Method: Terminal deoxynucleotidyl transferase-mediated dUTP nick end labeling (TUNEL) assay was used to study the DNA fragmentation or apoptosis detection. TUNEL assay was performed on 4–5 µm thick sections as per the kit manual. Formalin-fixed tumor tissues were embedded in paraffin and sectioned ([…]). DeadEndTM Colorimetric Apoptosis Detection System (Promega, Madison, WI) allows the recognition of apoptotic nuclei in paraffin-embedded tissue sections fixed on slides according to the manufacturer's protocol. Briefly, the equilibration buffer was added to slides and incubated for 10 minutes followed by 10-minute incubation in […] proteinase K solution. The sections were washed in PBS and incubated with TdT enzyme at 37°C for 1 h in a humidified chamber for incorporation of biotinylated nucleotides at the 3-OH ends of DNA. The slides were incubated in horseradish peroxidase-labeled streptavidin to bind the biotinylated nucleotides followed by detection with stable chromagen DAB. The images on the slides were visualized with an Olympus BX40 light microscope equipped with a computer-controlled digital camera (DP71, Olympus Center Valley, PA, USA). Three slides per group were stained and apoptotic cells were identified by dark brown […] staining.

[4] = tested on: A549 orthotopic lung tumors; assay: A549 orthotopic lung cancer model; type: in vivo, athymic Nu/nu mice; conditions: 100 mg/kg orally daily for 3 weeks
Method: (§1) A549 cells were grown in F12K Medium containing 10% FBS and standard antibiotic mix at 5% CO2 and 37°C. For orthotopic lung tumor model, mice were anesthetized with Isoflurane and a 5 mm skin incision was made to the left chest, 5 mm below the scapula. Hamilton syringes (1 ml) with 28-gauge hypodermic needles were used to inject the cell inoculums through the sixth intercostal space into the left lung. The needle was quickly advanced to a depth of 3 mm and quickly removed after the injection of the A549 cells (2 million/mouse) suspended in 100 µL PBS (pH 7.4) into the lung parenchyma. For metastatic lung tumor models H1650 cells (2 million in 100 µL PBS) were intravenously administered to mice via tail vein. […] Only cell suspensions of >95% viability as determined by tryphan blue exclusion were used. Wounds from the incisions were closed with surgical skin clips. […] Drug treatment was started 2 weeks after the tumor cell implantation. BBR free drug or SD formulation was given orally at the dose of 100 mg/kg daily for 3 weeks. […] Body weights were monitored throughout the study. Animal survival rates were recorded during the study. The lung weights and tumor volumes were used for assessment of therapeutic activity of the treatments. After sacrificing the animals lung weights and tumor nodules were recorded in metastatic tumor models.

[5] = tested on: H1650 metastatic lung tumors; assay: H1650 metastatic lung cancer model; type: in vivo, athymic Nu/nu mice; conditions: 100 mg/kg orally daily for 3 weeks
Method: as §1

Phospho-JNK = assay: Real time PCR of tumors; type: in vivo, athymic Nu/nu mice; conditions: normalised to β-actin
Method: (§2) Total RNA was extracted from tumors using RNeasy Kit and quantified by UV method using Nanodrop system. RNA was converted to complementary DNA using RT^2 First Strand Kit and RT^2 SYBR Green ROX qPCR Mastermix as per manufacturer's instructions. p38, Phospho-JNK, Bax, Bcl-2, cleaved caspase 8, cleaved caspase 3, survivin and BAD, mRNA expressions amplification was performed on an ABI 7300 RT-PCR (Applied Biosystems, Carlsbad, CA, USA) and data analysis done with a PCR Array Data Analysis Software (SA Biosciences, Valencia, CA, USA). The mRNA levels of p38, Phospho-JNK, Bax, Bcl-2, cleaved caspase 8, cleaved caspase 3, survivin and BAD and β-actin were calculated. The β-actin was a normalization control for gene expression.

cleaved caspase-3 = assay: Real time PCR of tumors; type: in vivo, athymic Nu/nu mice; conditions: normalised to β-actin
Method: as §2

Bcl-2 = assay: Real time PCR of tumors; type: in vivo, athymic Nu/nu mice; conditions: normalised to β-actin
Method: as §2

cleaved caspase-8 = assay: Real time PCR of tumors; type: in vivo, athymic Nu/nu mice; conditions: normalised to β-actin
Method: as §2

Bax = assay: Real time PCR of tumors; type: in vivo, athymic Nu/nu mice; conditions: normalised to β-actin
Method: as §2

p38 = assay: Real time PCR of tumors; type: in vivo, athymic Nu/nu mice; conditions: normalised to β-actin
Method: as §2

H1650 cells = assay: In vitro cytotoxicity, crystal violet staining; type: cell-based; conditions: Homo sapiens, NCI-H1650; BA, 72 h treatment
Method: (§3) NSCLC cells A549 and H1650 were plated in 96 well plates at 10,000 cells/well density. After 24 h, cells were treated with various concentrations of BBR and BA. DMSO (0.1%) treated cells were considered as control cells. After 72 h treatment, cells were fixed in 0.25% gultaraldehyde and stained with 0.05% crystal violet staining. Percent of cell viability or cell kill was calculated by considering DMSO treated control cells as 100% viable (zero % cell kill).

A549 cells = assay: In vitro cytotoxicity, crystal violet staining; type: cell-based; conditions: Homo sapiens, BA, 72 h treatment
Method: as §3

[6] = Sprague Dawley, rat, plasma, po, 100 mg/kg orally

Method for Caco-2 cell monolayers: Caco-2 cells (passage #29) were cultured at 37°C with culture medium replaced every 2 days in an atmosphere of 5% CO2 and 95% relative humidity. Cells were harvested upon reaching approximately 80-90% confluence with 0.25% trypsin–EDTA. Cells were grown on 1.12 cm^2 0.4 μm pore polycarbonate membrane inserts in 12 mm × 12 transwell permeable support plates (Corning, NY, USA). Caco-2 cells were seeded onto membranes at 50,000 cells/well. Individual wells received 1.5 mL of culture medium at the bottom and 0.5 mL of medium was added to the top of inserts which was changed on alternate days. Confluent monolayers were used for permeability studies at ~21 days post seeding. Transepithelial electrical resistance (TEER) of Caco-2 monolayers was measured prior to all experiments using the EVOM volt-ohm-meter (Millicell-ERS; Millipore, USA) to ensure monolayer integrity. The TEER (Ω·cm^2) values of the cell monolayers were determined by the resistance (Ω) × effective membrane area (cm^2). TEER values were measured across each cell monolayer prior to beginning the experimentation and at the last sample collection time point. Transport studies were initiated by removing culture medium from the apical (A) and basolateral (B) sides of the cell monolayer. […] The effective permeability (Peff) (cm/s) was determined using Eq. 1: […]

CL ([1]; 100 mg/kg orally): 0.113 ± 0.0175 mL/min/kg
AUMC (0-∞) ([1]; BA, 100 mg/kg orally): 116.04±23.13 µg.h^2/ml
Vd ([1]; BA, 100 mg/kg orally): 0.12243 ± 0.01586 L/kg
half-life ([1]; Sprague Dawley, rat, plasma, po, 100 mg/kg, read-out: t½ (converted)): 12.3 ± 3.68 h
MRT [1, 6]: 15.1 ± 3.86 h
Tmax [1, 6]: 2.36 ± 0.38 h
AUC(0-inf) ([1]; Sprague Dawley, rat, plasma, po, BA, 100 mg/kg orally): 7260 ± 1650 ng·h/mL
Cmax ([1]; Sprague Dawley, rat, po, BA, 100 mg/kg orally, plasma): 1160 ± 220 ng/mL
drug release [2]: 11.3%
Molecule: C=C(C)[C@@H]1CC[C@]2(C(=O)O)CC[C@]3(C)[C@H](CC[C@@H]4[C@@]5(C)CC[C@H](O)C(C)(C)[C@@H]5CC[C@]43C)[C@@H]12 [BA free drug, 3β, hydroxy-lup-20(29)-en-28-oic acid]
increase in TUNEL positive apoptotic cells compared to control tumors [3]: 8.14 fold
lung tumor weights [4]: 404.31 ± 29.50 mg
reduction in tumor volumes compared to untreated control [4]: 27.72%
reduction in tumor weights compared to untreated control tumors [4]: Approximately 31.11%
decrease of tumor nodules in the peripheral lobes [5]: 1.31 fold
tumor weights reduced to, compared to untreated control [5]: 75.94%
Phospho-JNK mRNA expression increased compared to control (Phospho-JNK): 1.69 fold
cleaved caspase-3 mRNA expression higher than control (cleaved caspase-3): 1.30 fold
Bcl-2 mRNA expression down regulated compared to untreated control (Bcl-2): 1.36 fold
cleaved caspase-8 mRNA expression higher than control (cleaved caspase-8): 1.25 fold
Bax mRNA expression increased compared to control (Bax): 1.08 fold
p38 mRNA expression increased compared to control (p38): 1.20 fold
IC50 (H1650 cells): 7.25 ± 1.54 µg/mL (≈ 15.9 µM)
IC50 (A549 cells): 8.92 ± 1.68 µg/mL (≈ 19.5 µM)

mean permeability of paracellular control (Caco-2 cell monolayers): < 0.15 ×10⁻⁶ cm/s
Molecule: Lucifer Yellow
